{"source": "ChEMBL document CHEMBL1139861", "about": "“Novel series of potent, nonsteroidal, selective androgen receptor modulators based on 7H-[1,4]oxazino[3,2-g]quinolin-7-ones” (J Med Chem, 2007)"}
{"target": "T1, Androgen receptor (Homo sapiens, UniProt P10275)", "T1 sequence (P10275 whole entry)": "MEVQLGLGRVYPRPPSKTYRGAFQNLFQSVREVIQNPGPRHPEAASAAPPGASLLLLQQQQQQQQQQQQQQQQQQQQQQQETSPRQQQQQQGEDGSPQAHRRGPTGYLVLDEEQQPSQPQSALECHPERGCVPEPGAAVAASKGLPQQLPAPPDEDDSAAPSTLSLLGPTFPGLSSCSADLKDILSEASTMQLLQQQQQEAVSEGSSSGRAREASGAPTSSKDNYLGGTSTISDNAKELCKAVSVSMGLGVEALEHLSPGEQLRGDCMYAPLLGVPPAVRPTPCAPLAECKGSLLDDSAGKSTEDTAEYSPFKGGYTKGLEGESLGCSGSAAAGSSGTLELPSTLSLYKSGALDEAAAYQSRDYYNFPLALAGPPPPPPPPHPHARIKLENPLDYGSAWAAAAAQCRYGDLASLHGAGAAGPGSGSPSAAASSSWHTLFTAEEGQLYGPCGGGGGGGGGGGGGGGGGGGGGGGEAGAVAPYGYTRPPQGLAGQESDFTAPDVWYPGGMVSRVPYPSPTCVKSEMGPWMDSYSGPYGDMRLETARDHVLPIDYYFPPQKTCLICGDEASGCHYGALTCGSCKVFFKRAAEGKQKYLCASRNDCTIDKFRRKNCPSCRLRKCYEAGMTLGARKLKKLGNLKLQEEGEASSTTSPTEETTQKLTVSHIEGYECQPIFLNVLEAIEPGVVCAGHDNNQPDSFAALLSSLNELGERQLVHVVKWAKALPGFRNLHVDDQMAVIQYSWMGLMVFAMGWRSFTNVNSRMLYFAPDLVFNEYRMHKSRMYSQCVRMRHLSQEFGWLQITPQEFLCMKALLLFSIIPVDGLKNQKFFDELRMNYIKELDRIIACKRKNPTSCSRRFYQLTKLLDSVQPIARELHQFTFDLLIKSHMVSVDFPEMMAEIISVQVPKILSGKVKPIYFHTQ", "assay": "not given", "details": "not given", "units": {"EC50": "nM"}}
{"compound": "O=c1cc(C(F)(F)F)c2cc3c(cc2[nH]1)OCCN3", "EC50": "> 10000"}
{"compound": "CCC1COc2cc3[nH]c(=O)cc(C(F)(F)F)c3cc2N1CC", "note": "(racemic)", "EC50": 3.9}
{"compound": "CC1COc2cc3[nH]c(=O)cc(C(F)(F)F)c3cc2N1", "note": "(racemic)", "EC50": 133}
{"compound": "CCN1c2cc3c(C(F)(F)F)cc(=O)[nH]c3cc2OCC1C", "note": "(racemic)", "EC50": 10}
{"compound": "CC1COc2cc3[nH]c(=O)cc(C(F)(F)F)c3cc2N1CC1CC1", "note": "(racemic)", "EC50": 1.9}
{"compound": "CCC1CN(C)c2cc3c(C(F)(F)F)cc(=O)[nH]c3cc2O1", "note": "(racemic)", "EC50": 52}
{"compound": "CC1CN(C)c2cc3c(C(F)(F)F)cc(=O)[nH]c3cc2O1", "note": "(racemic)", "EC50": 47}
{"compound": "CCC1CN(CC(F)(F)F)c2cc3c(C(F)(F)F)cc(=O)[nH]c3cc2O1", "note": "(racemic)", "EC50": 15}
{"compound": "CCC1CN(CC)c2cc3c(C(F)(F)F)cc(=O)[nH]c3cc2O1", "note": "(racemic)", "EC50": 31}
{"organism": "Rattus norvegicus", "assay": "not given", "details": "dose 100 mg/kg; route oral", "units": {"Efficacy": "%"}}
{"compound": "C[C@]1(O)CC[C@H]2[C@@H]3CCC4=CC(=O)CC[C@]4(C)[C@@]3(F)[C@@H](O)C[C@@]21C", "note": "[FLUOXYMESTERONE]", "Efficacy": 79}
{"organism": "Rattus norvegicus", "assay": "not given", "details": "dose 100 mg/kg; route oral", "remark": "another data set of the same source", "units": {"Efficacy": "%"}}
{"compound": "C[C@]1(O)CC[C@H]2[C@@H]3CCC4=CC(=O)CC[C@]4(C)[C@@]3(F)[C@@H](O)C[C@@]21C", "note": "[FLUOXYMESTERONE]", "Efficacy": 129}
{"target": "T1, Androgen receptor", "assay": "not given", "details": "not given", "remark": "another data set of the same source", "units": {"IC50": "nM"}}
{"compound": "CN1CCOc2cc3[nH]c(=O)cc(C(F)(F)F)c3cc21", "IC50": "> 10000"}
{"compound": "CCCN1CCOc2cc3[nH]c(=O)cc(C(F)(F)F)c3cc21", "IC50": "> 10000"}
{"compound": "O=c1cc(C(F)(F)F)c2cc3c(cc2[nH]1)OCCN3", "IC50": 296}
{"compound": "CCC1CN(C)c2cc3c(C(F)(F)F)cc(=O)[nH]c3cc2O1", "note": "(racemic)", "IC50": 67}
{"compound": "CCC1CN(CC(F)(F)F)c2cc3c(C(F)(F)F)cc(=O)[nH]c3cc2O1", "note": "(racemic)", "IC50": "> 10000"}
{"compound": "CCC1CN(CC)c2cc3c(C(F)(F)F)cc(=O)[nH]c3cc2O1", "note": "(racemic)", "IC50": "> 10000"}
{"compound": "CC1CN(CC(F)(F)F)c2cc3c(C(F)(F)F)cc(=O)[nH]c3cc2O1", "note": "(stereo in doubt; (-)-10h)", "IC50": "> 10000"}
{"target": "T1, Androgen receptor", "assay": "biochemical", "details": "not given", "units": {"Ki": "nM"}}
{"compound": "O=c1cc(C(F)(F)F)c2cc3c(cc2[nH]1)OCCN3", "Ki": "> 1000"}
{"compound": "CCC1COc2cc3[nH]c(=O)cc(C(F)(F)F)c3cc2N1CC", "note": "(racemic)", "Ki": 5.6}
{"compound": "CC1COc2cc3[nH]c(=O)cc(C(F)(F)F)c3cc2N1", "note": "(racemic)", "Ki": 113}
{"compound": "CCN1c2cc3c(C(F)(F)F)cc(=O)[nH]c3cc2OCC1C", "note": "(racemic)", "Ki": 4.2}
{"compound": "CC1COc2cc3[nH]c(=O)cc(C(F)(F)F)c3cc2N1CC1CC1", "note": "(racemic)", "Ki": 4}
{"compound": "CCC1CN(C)c2cc3c(C(F)(F)F)cc(=O)[nH]c3cc2O1", "note": "(racemic)", "Ki": 58}
{"compound": "CC1CN(C)c2cc3c(C(F)(F)F)cc(=O)[nH]c3cc2O1", "note": "(racemic)", "Ki": 33}
{"compound": "CCC1CN(CC(F)(F)F)c2cc3c(C(F)(F)F)cc(=O)[nH]c3cc2O1", "note": "(racemic)", "Ki": 30}
{"compound": "CCC1CN(CC)c2cc3c(C(F)(F)F)cc(=O)[nH]c3cc2O1", "note": "(racemic)", "Ki": 34}
